# Assay results as given in ChEMBL document CHEMBL5625224, “Identification of [1,2,4]Triazolo[4,3-a]pyrazine PARP1 inhibitors with overcome acquired resistance activities” (Eur J Med Chem, 2023).
# Experiments:
# [1] = Selectivity ratio of IC50 for antiproliferative activity against human Olaparib-resistant CAPAN-1 cells to IC50 for antiproliferative activity against human CAPAN-1 BRCA2-/- cells; assay type: functional
# [2] = Selectivity ratio of IC50 for antiproliferative activity against human Talazoparib-resistant CAPAN-1 cells to IC50 for antiproliferative activity against human CAPAN-1 BRCA2-/- cells; assay type: functional
# [3] = tested on: Olaparib-resistant CAPAN-1; assay: Antiproliferative activity against human Olaparib-resistant CAPAN-1 cells assessed as inhibition of cell growth incubated for 7 days by CCK-8 assay; assay type: functional, cell-based; conditions: Olaparib-resistant CAPAN-1, 168 h
# [4] = Antiproliferative activity against human Simmiparib-resistant CAPAN-1 cells assessed as inhibition of cell growth incubated for 7 days by CCK-8 assay; assay type: functional, cell-based; conditions: CAPAN-1, 168 h
# [5] = Selectivity ratio of IC50 for antiproliferative activity against human Simmiparib-resistant CAPAN-1 cells to IC50 for antiproliferative activity against human CAPAN-1 BRCA2-/- cells; assay type: functional
# [6] = Antiproliferative activity against human Talazoparib-resistant CAPAN-1 cells assessed as inhibition of cell growth incubated for 7 days by CCK-8 assay; assay type: functional, cell-based; conditions: CAPAN-1, 168 h
# [7] = biological target: T1, Poly [ADP-ribose] polymerase 1 (Homo sapiens, UniProt P09874); assay: Inhibition of PARP1 (unknown origin) incubated for 1 hr by ELISA analysis
# T1 sequence (P09874 whole entry): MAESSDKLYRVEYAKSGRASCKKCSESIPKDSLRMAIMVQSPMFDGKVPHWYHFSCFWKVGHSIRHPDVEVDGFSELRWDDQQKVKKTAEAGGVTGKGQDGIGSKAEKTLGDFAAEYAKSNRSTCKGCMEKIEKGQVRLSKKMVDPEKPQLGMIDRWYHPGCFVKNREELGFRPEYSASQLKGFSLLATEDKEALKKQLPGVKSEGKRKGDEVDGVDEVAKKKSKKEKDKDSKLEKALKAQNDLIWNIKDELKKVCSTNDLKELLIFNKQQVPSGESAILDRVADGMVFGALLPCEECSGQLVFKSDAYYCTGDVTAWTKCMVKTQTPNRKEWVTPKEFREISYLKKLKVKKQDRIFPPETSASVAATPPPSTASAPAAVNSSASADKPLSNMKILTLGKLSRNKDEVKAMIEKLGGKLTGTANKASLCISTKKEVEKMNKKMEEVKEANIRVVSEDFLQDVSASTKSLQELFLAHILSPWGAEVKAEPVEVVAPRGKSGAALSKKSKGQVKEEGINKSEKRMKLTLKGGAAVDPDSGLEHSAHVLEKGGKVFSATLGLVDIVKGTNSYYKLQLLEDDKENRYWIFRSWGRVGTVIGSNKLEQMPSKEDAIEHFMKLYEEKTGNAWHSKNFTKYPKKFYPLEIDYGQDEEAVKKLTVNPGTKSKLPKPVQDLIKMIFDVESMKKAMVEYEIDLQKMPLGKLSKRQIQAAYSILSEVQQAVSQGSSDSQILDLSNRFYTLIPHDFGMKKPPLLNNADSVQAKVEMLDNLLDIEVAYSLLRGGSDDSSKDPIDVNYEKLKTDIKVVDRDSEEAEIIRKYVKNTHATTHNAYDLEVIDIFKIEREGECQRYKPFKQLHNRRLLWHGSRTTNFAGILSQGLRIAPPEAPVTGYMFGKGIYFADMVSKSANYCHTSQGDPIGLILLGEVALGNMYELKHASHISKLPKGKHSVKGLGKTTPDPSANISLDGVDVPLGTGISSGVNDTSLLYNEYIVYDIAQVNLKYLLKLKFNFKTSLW
# CAPAN-1 [8] = assay: Antiproliferative activity against human CAPAN-1 BRCA2-/- cells assessed as inhibition of cell growth incubated for 7 days by CCK-8 assay; assay type: functional, cell-based; conditions: CAPAN-1, 168 h
# MDA-MB-436 = assay: Antiproliferative activity against human MDA-MB-436 BRCA1-/- cells assessed as inhibition of cell growth incubated for 7 days by CCK-8 assay; assay type: functional, cell-based; conditions: MDA-MB-436, 168 h
# [9] = Cytotoxicity against Chinese hamster V-C8 BRCA2-/- cells assessed as reduction in cell viability; assay type: toxicity, cell-based, Cricetulus griseus
# [10] = biological target: Voltage-gated inwardly rectifying potassium channel KCNH2 (Homo sapiens, UniProt Q12809); assay: Inhibition of hERG; assay type: toxicity
# Chain of Voltage-gated inwardly rectifying potassium channel KCNH2 (Q12809 whole entry): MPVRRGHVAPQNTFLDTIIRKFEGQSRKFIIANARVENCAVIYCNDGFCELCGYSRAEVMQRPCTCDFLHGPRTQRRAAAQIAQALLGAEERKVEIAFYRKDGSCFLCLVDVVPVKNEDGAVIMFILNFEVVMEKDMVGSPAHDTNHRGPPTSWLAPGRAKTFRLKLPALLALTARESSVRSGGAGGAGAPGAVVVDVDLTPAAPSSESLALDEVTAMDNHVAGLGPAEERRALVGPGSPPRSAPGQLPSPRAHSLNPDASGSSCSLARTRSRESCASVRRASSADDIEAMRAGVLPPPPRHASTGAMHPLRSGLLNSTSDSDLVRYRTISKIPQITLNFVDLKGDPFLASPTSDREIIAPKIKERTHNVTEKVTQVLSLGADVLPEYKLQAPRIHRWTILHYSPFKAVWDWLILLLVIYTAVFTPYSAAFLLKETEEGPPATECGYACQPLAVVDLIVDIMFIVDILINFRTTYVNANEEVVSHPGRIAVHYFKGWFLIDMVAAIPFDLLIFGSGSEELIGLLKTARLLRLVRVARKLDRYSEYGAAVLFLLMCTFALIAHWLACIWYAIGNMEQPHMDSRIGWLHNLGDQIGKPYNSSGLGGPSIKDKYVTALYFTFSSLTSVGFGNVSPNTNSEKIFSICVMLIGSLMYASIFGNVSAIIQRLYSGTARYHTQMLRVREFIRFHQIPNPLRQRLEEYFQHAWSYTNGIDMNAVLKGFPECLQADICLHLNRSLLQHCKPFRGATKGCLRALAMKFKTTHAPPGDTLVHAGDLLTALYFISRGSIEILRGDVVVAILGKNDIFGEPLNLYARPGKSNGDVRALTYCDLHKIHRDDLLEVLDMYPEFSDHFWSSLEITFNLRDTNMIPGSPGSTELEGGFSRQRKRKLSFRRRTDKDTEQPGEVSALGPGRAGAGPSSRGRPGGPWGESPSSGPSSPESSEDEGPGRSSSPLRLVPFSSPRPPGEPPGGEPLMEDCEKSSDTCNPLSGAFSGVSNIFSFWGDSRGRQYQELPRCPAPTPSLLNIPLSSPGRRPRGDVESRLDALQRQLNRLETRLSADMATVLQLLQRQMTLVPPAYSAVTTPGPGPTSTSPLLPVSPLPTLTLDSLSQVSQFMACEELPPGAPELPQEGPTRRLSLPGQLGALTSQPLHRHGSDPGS
# CAPAN-1 [11] = assay: Induction of apoptosis in human CAPAN-1 cells assessed as early apoptotic cells at 1 uM incubated for 48 hrs by Annexin-V/PI staining based flow cytometry analysis (reference value: 10.1%); assay type: functional
# [12] = tested on: Olaparib-resistant CAPAN-1; assay: Induction of apoptosis in human Olaparib-resistant CAPAN-1 cells assessed as late apoptotic cells at 1 uM incubated for 48 hrs by Annexin-V/PI staining based flow cytometry analysis (reference value: 3.67%); assay type: functional
# [13] = tested on: Olaparib-resistant CAPAN-1; assay: Induction of apoptosis in human Olaparib-resistant CAPAN-1 cells assessed as early apoptotic cells at 1 uM incubated for 48 hrs by Annexin-V/PI staining based flow cytometry analysis (reference value: 8.50%); assay type: functional
# CAPAN-1 [14] = assay: Induction of apoptosis in human CAPAN-1 cells assessed as late apoptotic cells at 1 uM incubated for 48 hrs by Annexin-V/PI staining based flow cytometry analysis (reference value: 4.95%); assay type: functional
# [15] = biological target: T1, Poly [ADP-ribose] polymerase 1; assay: Inhibition of PARP1 (unknown origin)
compound,measurement,setting,value
Cn1ncnc1[C@H]1c2n[nH]c(=O)c3cc(F)cc(c23)N[C@@H]1c1ccc(F)cc1 [TALAZOPARIB],Ratio IC50,[1],1344
same,Ratio IC50,[2],666
same,IC50,[3],367 nM
same,IC50,[4],478 nM
same,Ratio IC50,[5],1749
same,IC50,[6],182 nM
CC1CN(C(=O)c2cc(Cc3n[nH]c(=O)c4ccccc34)ccc2F)Cc2nnc(-c3cncs3)n21 (stereo unspecified),IC50,[7],5.8 nM
same,IC50,CAPAN-1 [8],21.6 nM
CC1CN(C(=O)c2cc(Cc3n[nH]c(=O)c4ccccc34)ccc2F)Cc2nnc(C3CC3)n21 (stereo unspecified),IC50,[7],3.2 nM
same,IC50,MDA-MB-436,7.5 nM
same,IC50,CAPAN-1 [8],60.7 nM
CC1CN(C(=O)c2cc(Cc3n[nH]c(=O)c4ccccc34)ccc2F)Cc2nnc(CO)n21 (stereo unspecified),IC50,[7],9.2 nM
CC1c2cc(F)ccc2CCN1C(=O)c1cc(Cc2n[nH]c(=O)c3ccccc23)ccc1F (stereo unspecified),IC50,[7],70.7 nM
Cc1cc(Cc2ccc(F)c(C(=O)N3Cc4nnc(-c5ccccn5)n4C(C)C3)c2)n[nH]c1=O (stereo unspecified),IC50,[7],> 1000 nM
CC1CN(C(=O)c2cc(Cc3n[nH]c(=O)c4ccccc34)ccc2F)Cc2nnc(-c3ncc[nH]3)n21 (stereo unspecified),IC50,[7],3.2 nM
same,IC50,MDA-MB-436,1.9 nM
same,IC50,CAPAN-1 [8],13.7 nM
COc1ccc2c(c1)C(C)N(C(=O)c1cc(Cc3n[nH]c(=O)c4ccccc34)ccc1F)CC2 (stereo unspecified),IC50,[7],108 nM
CC1CN(C(=O)c2cc(Cc3n[nH]c(=O)c4ccccc34)ccc2F)Cc2nnc(C(F)(F)F)n21 (stereo unspecified),IC50,[3],20 nM
same,IC50,[4],20 nM
same,CC50,[9],42 nM
same,IC50,[6],20 nM
same,IC50,MDA-MB-436,1.3 nM
CC(C)c1nnc2n1C(C)CN(C(=O)c1cc(Cc3n[nH]c(=O)c4ccccc34)ccc1F)C2 (stereo unspecified),IC50,[7],4.1 nM
CC1CN(C(=O)c2cc(Cc3n[nH]c(=O)c4ccccc34)ccc2F)Cc2nnc(-c3ccccn3)n21 (stereo unspecified),Ratio IC50,[1],165
same,Ratio IC50,[2],55
same,IC50,[3],292 nM
same,IC50,[4],437 nM
same,Ratio IC50,[5],247
same,IC50,[7],2 nM
same,IC50,[10],17400 nM
same,IC50,[6],97 nM
same,IC50,MDA-MB-436,< 0.3 nM
same,IC50,CAPAN-1 [8],1 nM
CC1CN(C(=O)c2cc(Cc3n[nH]c(=O)c4ccccc34)ccc2F)Cc2nnc(-c3ccsc3)n21 (stereo unspecified),IC50,[7],2 nM
same,IC50,CAPAN-1 [8],7.3 nM
CC1CN(C(=O)c2cc(Cc3n[nH]c(=O)c4ccccc34)ccc2F)Cc2nnc(CN(C)C)n21 (stereo unspecified),IC50,[7],17.6 nM
same,IC50,CAPAN-1 [8],1430 nM
CC1CN(C(=O)c2cc(COc3ccccc3C(N)=O)ccc2F)Cc2nnc(-c3ccccn3)n21 (stereo unspecified),IC50,[7],230 nM
CC1CN(C(=O)c2cc(Cn3c(=O)[nH]c(=O)c4ccccc43)ccc2F)Cc2nnc(-c3ccccn3)n21 (stereo unspecified),IC50,[7],4.6 nM
CC1CN(C(=O)c2cc(Cc3n[nH]c(=O)c4ccccc34)ccc2F)Cc2nnc(C(F)(F)C(F)(F)F)n21 (stereo unspecified),Ratio IC50,[1],590
same,Ratio IC50,[2],91
same,IC50,[3],1770 nM
same,IC50,[4],1530 nM
same,Ratio IC50,[5],509
same,IC50,[7],4.1 nM
same,IC50,[10],40000 nM
same,IC50,[6],272 nM
same,IC50,MDA-MB-436,1.9 nM
same,IC50,CAPAN-1 [8],2.5 nM
O=C(c1cc(Cc2n[nH]c(=O)c3ccccc23)ccc1F)N1CCN(C(=O)C2CC2)CC1 [OLAPARIB],IC50,[3],40 nM
same,IC50,[4],27600 nM
same,Activity,CAPAN-1 [11],16.2%
same,Activity,[12],4.02%
same,Activity,[13],11.5%
same,IC50,[6],11500 nM
same,IC50,MDA-MB-436,43.2 nM
same,Activity,CAPAN-1 [14],4.5%
CC1CN(C(=O)c2cc(Cc3n[nH]c(=O)c4ccccc34)ccc2F)Cc2cnnn21 (stereo unspecified),IC50,[7],> 1000 nM
CC1Cn2nncc2CN1C(=O)c1cc(Cc2n[nH]c(=O)c3ccccc23)ccc1F (stereo unspecified),IC50,[7],> 1000 nM
CC1CN(C(=O)c2cc(Cc3n[nH]c(=O)c4ccccc34)ccc2F)Cc2nnc(-c3cnccn3)n21 (stereo unspecified),IC50,[7],4 nM
same,IC50,MDA-MB-436,< 0.3 nM
same,IC50,CAPAN-1 [8],7.3 nM
Cc1c(Cc2ccc(F)c(C(=O)N3Cc4nnc(-c5ccccn5)n4C(C)C3)c2)n[nH]c(=O)c1C (stereo unspecified),IC50,[7],61.3 nM
CC1CN(C(=O)c2cc(Cc3n[nH]c(=O)c4ccccc34)ccc2F)Cc2nnc(CF)n21 (stereo unspecified),IC50,[7],11.9 nM
CC1CN(C(=O)c2cc(Cc3n[nH]c(=O)c4ccccc34)ccc2F)Cc2nncn21 (stereo unspecified),IC50,[7],9.4 nM
CC1CN(C(=O)c2cc(Cc3n[nH]c(=O)c4ccccc34)ccc2F)Cc2nnc(CCl)n21 (stereo unspecified),IC50,[7],< 0.3 nM
same,IC50,MDA-MB-436,2.7 nM
CC1(C)Cn2nncc2CN1C(=O)c1cc(Cc2n[nH]c(=O)c3ccccc23)ccc1F,IC50,[7],> 1000 nM
CC1CN(C(=O)c2cc(Cc3n[nH]c(=O)c4ccccc34)ccc2F)Cc2nnc(-c3cnn(C)c3)n21 (stereo unspecified),IC50,[7],2.8 nM
same,IC50,MDA-MB-436,21.1 nM
same,IC50,CAPAN-1 [8],218 nM
CC1CN(C(=O)c2cc(Cc3n[nH]c(=O)c4ccccc34)ccc2F)Cc2nnc(-c3nccn3C)n21 (stereo unspecified),IC50,[7],7.7 nM
CC1CN(C(=O)c2cc(Cc3ccc(=O)[nH]n3)ccc2F)Cc2nnc(-c3ccccn3)n21 (stereo unspecified),IC50,[7],947 nM
CC1c2ccccc2CCN1C(=O)c1cc(Cc2n[nH]c(=O)c3ccccc23)ccc1F (stereo unspecified),IC50,[7],42.8 nM
O=C1NCC2c3c(cccc31)CCN2C(=O)c1cc(Cc2n[nH]c(=O)c3ccccc23)ccc1F (stereo unspecified),CC50,[9],96 nM
CC1CN(C(=O)c2cc(Cc3n[nH]c(=O)c4ccccc34)ccc2F)Cc2nnc(-c3ccco3)n21 (stereo unspecified),IC50,[7],1.7 nM
same,IC50,MDA-MB-436,< 0.3 nM
CC1CN(C(=O)c2cc(Cc3n[nH]c(=O)c4ccccc34)ccc2F)Cc2nnc(C(F)(F)Cl)n21 (stereo unspecified),IC50,[7],3.4 nM
same,IC50,MDA-MB-436,0.3 nM
same,IC50,CAPAN-1 [8],3.4 nM
O=C1CC2c3c(cccc31)CCN2C(=O)c1cc(Cc2n[nH]c(=O)c3ccccc23)ccc1F (stereo unspecified),IC50,[15],3.46 nM
same,CC50,[9],4.53 nM
CC1CN(C(=O)c2cc(Cc3n[nH]c(=O)c4ccccc34)ccc2F)Cc2nnc(C(F)F)n21 (stereo unspecified),IC50,[7],4.3 nM
same,IC50,MDA-MB-436,2.9 nM
same,IC50,CAPAN-1 [8],29.5 nM
CC1CN(C(=O)c2cc(Cc3n[nH]c(=O)c4ccccc34)ccc2F)Cc2nnc(CO[Si](C)(C)C(C)(C)C)n21 (stereo unspecified),IC50,CAPAN-1 [8],54.7 nM
CC1CN(C(=O)c2cc(Cc3n[nH]c(=O)c4ccccc34)ccc2F)Cc2nnc(-c3c[nH]cn3)n21 (stereo unspecified),IC50,[7],13.1 nM
O=C(c1cc(Cc2n[nH]c(=O)c3ccccc23)ccc1F)N1CCc2ccccc2C1C1CC1 (stereo unspecified),IC50,[7],182 nM
CC1CN(C(=O)c2cc(Cc3n[nH]c(=O)c4ccccc34)ccc2F)Cc2nnc(-c3cccs3)n21 (stereo unspecified),Ratio IC50,[1],717
same,Ratio IC50,[2],112
same,IC50,[3],4660 nM
same,IC50,[4],3290 nM
same,Ratio IC50,[5],507
same,IC50,[7],0.7 nM
same,IC50,[10],4100 nM
same,IC50,[6],730 nM
same,IC50,MDA-MB-436,1.1 nM
CC1CN(C(=O)c2cc(Cc3n[nH]c(=O)c4ccccc34)ccc2F)Cc2nnc(C(O)CO)n21 (stereo unspecified),IC50,[7],21 nM
CC1(C)CN(C(=O)c2cc(Cc3n[nH]c(=O)c4ccccc34)ccc2F)Cc2cnnn21,IC50,[7],> 1000 nM
CC1CN(C(=O)c2cc(Cc3n[nH]c(=O)c4ccccc34)ccc2F)Cc2nnc(C3COC(C)(C)O3)n21 (stereo unspecified),IC50,[7],25 nM
